Results: publication PMC6332194, “Synthesis of C3/C1-Substituted Tetrahydroisoquinolines” (Molecules, 2015)

Experiments:
Experiment in all cases: fluorogenic peptide-AMC hydrolysis assay
Format in all cases: biochemical
[1] = target: T1, recombinant Leishmania mexicana cysteine protease CPB2.8 (Leishmania mexicana, UniProt P36400)
T1 construct: gene LMCPB; recombinant; often used without C-terminal extension

[2] = target: T2, human 20S proteasome, β5-subunits (chymotrypsin-like activity) (Homo sapiens, UniProt P28074)
T2 construct: gene PSMB5; commercial 20S core particle (Biomol GmbH); with Proteasome subunit beta type-1; Proteasome subunit beta type-6; Proteasome subunit beta type-7; Proteasome subunit beta type-3; Proteasome subunit beta type-2; Proteasome subunit beta type-4; Proteasome subunit alpha type-6; Proteasome subunit alpha type-2; Proteasome subunit alpha type-4; Proteasome subunit alpha type-7; Proteasome subunit alpha type-5; Proteasome subunit alpha type-1; Proteasome subunit alpha type-3
T2 sequence (P28074 60-263): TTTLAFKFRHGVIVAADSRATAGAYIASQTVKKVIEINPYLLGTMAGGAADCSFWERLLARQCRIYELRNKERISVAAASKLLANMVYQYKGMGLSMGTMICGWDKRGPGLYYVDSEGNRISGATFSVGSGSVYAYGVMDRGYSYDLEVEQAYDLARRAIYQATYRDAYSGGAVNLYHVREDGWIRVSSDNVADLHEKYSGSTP

[3] = target: T3, human 20S proteasome, β2-subunits (trypsin-like activity) (Homo sapiens, UniProt Q99436)
T3 construct: gene PSMB7; commercial 20S core particle (Biomol GmbH); with Proteasome subunit beta type-3; Proteasome subunit beta type-5; Proteasome subunit beta type-6; Proteasome subunit beta type-1; Proteasome subunit beta type-2; Proteasome subunit beta type-4; Proteasome subunit alpha type-6; Proteasome subunit alpha type-2; Proteasome subunit alpha type-4; Proteasome subunit alpha type-7; Proteasome subunit alpha type-5; Proteasome subunit alpha type-1; Proteasome subunit alpha type-3
T3 sequence (Q99436 44-277): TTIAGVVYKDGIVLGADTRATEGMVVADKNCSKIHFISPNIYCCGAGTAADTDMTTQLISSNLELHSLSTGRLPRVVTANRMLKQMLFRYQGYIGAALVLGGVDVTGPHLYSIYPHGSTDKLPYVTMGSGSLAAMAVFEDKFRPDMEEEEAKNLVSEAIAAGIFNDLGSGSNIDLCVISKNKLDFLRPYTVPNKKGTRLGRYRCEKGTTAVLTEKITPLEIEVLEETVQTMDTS

T1 sequence (P36400 126-340): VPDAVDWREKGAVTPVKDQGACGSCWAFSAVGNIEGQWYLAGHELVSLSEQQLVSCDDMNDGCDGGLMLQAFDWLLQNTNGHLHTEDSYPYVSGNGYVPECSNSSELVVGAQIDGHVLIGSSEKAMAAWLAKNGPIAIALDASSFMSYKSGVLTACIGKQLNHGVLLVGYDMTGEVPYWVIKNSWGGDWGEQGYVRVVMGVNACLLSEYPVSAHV

COc1cc2c(cc1O)[C@@H](C)N(C)CC2 [compound 2, N-methylisosalsoline]
inhibition at 20 µM [1]: ~14% | inhibition at 20 µM [2]: ~40% | inhibition at 20 µM [3]: ~20%
